Tested on: DLD-1 cells
Experiment: in vitro test with cancerous DLD1 colon cells treated continuously
Format: cell-based
Conditions: continuous treatment, about 125 μg·ml of Formula (2)
Description: FIG. 1 illustrates the survival percentage colon DLD-1 carcinoma cells […] after continuous treatment with Formula (2).
FIG. 1 illustrates the results of an in vitro test with cancerous DLD1 colon cells treated continuously with Formula (2). The survival percentage for DLD-1 cells decreases from 100 percent without treatment to less than 1 percent in the presence of continuous treatment of about 125 μg·ml of Formula (2).

In the case of `Cc1cccc(NC(C)c2ccccc2C)c1` (stereo not shown) [Formula (2), 3-methyl-N-(1-o-tolylethyl)benxenamine], the “survival percentage for DLD-1 cells” value is reported as “less than 1%”.

From US8329756B2, “Drug for treatment of colon cancer” (Oncophor, LLC, priority 2009, dated 2012)
